Our source for the cytotoxicity values is ChEMBL document CHEMBL3507680, “University of Dundee, Gates Library screen for HepG2 cell viability”.

A short description of the series: Human HepG2 cell viability assay in 384 well format. The format is toxicity, cell-based. The arrangement: dose 125 nL, time 70.5 hour; concentration not given beside the values. As to conditions: HepG2 cells, read-out: Inhibition.

Turning to `Cc1ccc(C(=O)NCCCN2CCOCC2)c(Cl)c1`, the cytotoxicity at 70.5 h is -6.07%.
To `c1ccc(CCCN2CC[C@H](c3nnc(-c4ccccc4)o3)C2)cc1` belongs -2.93%; to `COc1ccc(F)c(CN2CCCC3(CCN(C4CCOCC4)C3)C2)c1` (stereo unspecified), -4.15%.
To `O=C1CCC(C(=O)N(Cc2ccsc2)CC2CCCO2)=NN1` (stereo unspecified) belongs -0.382%.
Take `CC(C)Cc1noc(CN(C)C(=O)CCNC(=O)c2ccccc2F)n1`: the cytotoxicity at 70.5 h is -8.23%.
To `Cc1csc(CNc2ccc(-c3nc(C4CC4)no3)cn2)n1` belongs -5.44%.
For the compound `O=S(=O)(c1c(Cl)nc2sccn12)N1CCC2(CCNCC2)C1`, the cytotoxicity at 70.5 h is -6.41%.
To `COCC[C@]1(O)CCN(CC(=O)NCc2ccccn2)C[C@H]1C` belongs 5.51%.
For `C=Cc1cccc(CN2CCCn3nc(CNS(C)(=O)=O)cc3C2)c1`, the cytotoxicity at 70.5 h was -3.84%.
As for `O=C(Nc1ccc2c(c1)OCO2)N1CCN(CCc2ccccc2)CC1`, the cytotoxicity at 70.5 h is -6.84%.
Regarding `c1cc2ccc(N3CCN(Cc4ccc5c(c4)OCO5)CC3)nc2[nH]1`, the cytotoxicity at 70.5 h is -4.53%.
To `Cc1c(CN(C)c2cc(C3CCCNC3)ncn2)[nH]c2ccccc12` (stereo unspecified) belongs -14.2%.
To `CCC(C)N(Cc1cccnc1)C(=O)c1ccc(F)c(O)c1` (stereo unspecified) belongs 12.9%; to `O=C(c1cn(CC(=O)N2CCCCCC2)c2ccccc12)C1CC1`, -7.67%.
As for `CCC[C@@H]1CN(Cc2ccccc2SC)C[C@H]1NC(C)=O`, the cytotoxicity at 70.5 h was -5.44%.
To `COc1cccc(S(=O)(=O)N2CCCCC2CCN2CCOCC2)c1` (stereo unspecified) belongs 24.6%; to `CCN1CC2(CCN(C(=O)C(C)Oc3ccc(F)cc3Cl)CC2)CC1=O` (stereo unspecified), 25%; to `CCCc1nc(N2CC[C@@H](c3ccc4ccccc4c3)[C@H](O)C2)no1`, -0.24%.
To `CCn1c(CC2CCN(C(=O)C3COCCO3)CC2)nn(C)c1=O` (stereo unspecified) belongs 42.7%; to `Cc1cnc(N2CC[C@@]3(O)CCCC[C@H]3C2)nc1-c1ccnn1C`, -7.52%.
To `O=C(c1ccc(S(=O)(=O)NC2CCC2)cc1)N1CC[C@H]2CNC[C@H]21` belongs -3.93%.
In the case of `Cc1nnsc1C(=O)NCc1cccnc1N1CCCC(O)C1` (stereo unspecified), the cytotoxicity at 70.5 h was -15.1%.
As for `Cc1ccccc1CN(Cc1ccncc1)CC(C)C`, the cytotoxicity at 70.5 h was -4.55%.
With `CC(C1CCN(Cc2ccc(N(C)C)nc2)CC1)N(C)C` (stereo unspecified), the cytotoxicity at 70.5 h is -2.39%.
Take `COC1CCN(S(=O)(=O)N2CC[C@@](O)(C3CCC3)[C@H](C)C2)CC1`: the cytotoxicity at 70.5 h is -11.9%.
On to `CC(C)[C@H]1CN(Cc2ccncc2)C[C@@H]1NC(=O)C1(C#N)CCOCC1`, for which the cytotoxicity at 70.5 h is -1.7%.
To `CNc1ccc(C(=O)N(C)Cc2ccc3ccccc3n2)cn1` belongs -8.44%; to `COCCN(C)Cc1cc(Cl)ccc1OCC(O)CN1CCCCCC1` (stereo unspecified), -11.6%; to `Cc1cc(C)cc(CCC(=O)N(C)CCc2cn[nH]c2)c1`, -14.2%.
To `O=C(O)c1cccnc1CN1CCOc2ccccc2C1` belongs -9.48%.
To `CCC(=O)N1CCC(n2cc(C(C)(C)O)nn2)CC1` belongs -6.93%; to `COC(=O)[C@@H]1C[C@@H](NC(=O)CN2C(=O)N(C)Cc3ccccc32)CN1C`, -3.77%.
For the compound `CCn1ncnc1C1CC(=O)NCc2nc(N)sc21` (stereo unspecified), the cytotoxicity at 70.5 h amounted to 27.6%.
Take `CCc1cnc(C)nc1NCCC(=O)N1CCC(C)CC1`: the cytotoxicity at 70.5 h is -0.743%.
To `CCCN1C[C@H]2CC[C@@H]1CN(Cc1cccc(-n3cccn3)c1)C2` belongs -0.983%; to `COc1ccccc1N1CCC(N2CCOC(C(F)(F)F)C2)CC1` (stereo unspecified), -3.26%.
For `O=C(C1CCOCC1)N1CCC(OCc2cccnc2)CC1`, the cytotoxicity at 70.5 h is -12%.
To `NC1CCCc2c1cnn2-c1cc(F)cc(F)c1` (stereo unspecified) belongs -4.65%.
To `O=C1CC2(CCN(CC3CC3)CC2)CN1Cc1cc(F)cc(F)c1` belongs -2.81%.
With `CCOc1ccnc(NCCc2nc(C)cc(=O)[nH]2)n1`, the cytotoxicity at 70.5 h is -2.38%.
Regarding `O=C(c1cnc(Cc2c(Cl)cccc2Cl)nc1O)N1CCNCC1`, the cytotoxicity at 70.5 h came out at 8.34%.
To `COCCN(Cc1ccccn1)C(=O)C1CCCCCN1C` (stereo unspecified) belongs -9.93%.
With `Cc1cc(C)c2nc(CN(C)C(C)c3ccncn3)cc(O)c2c1` (stereo unspecified), the cytotoxicity at 70.5 h was -4.38%.
`CCN1CC2(CCC1=O)CCN(CCOc1ccc(F)cc1)CC2`: the cytotoxicity at 70.5 h is -13%.
As to `Cc1ccc(C#N)c(N2CCC3(CCC(=O)N(CC(N)=O)C3)CC2)n1`, the cytotoxicity at 70.5 h was -9.24%.
To `O=C(O)C1(Cc2ccccc2Cl)CCN(c2ncnc3[nH]ccc23)CC1` belongs 10.8%.
To `CSc1ncc(C(=O)N2C[C@H]3CC[C@@H]2CN(S(=O)(=O)N(C)C)C3)cn1` belongs -1.22%; to `CC(C)(N)c1cn(C2CCN(C3CCSCC3)CC2)nn1`, -6.81%.
To `COCc1cc(N2CCN(Cc3ccncc3)CC2)n2nccc2n1` belongs -1.74%.
As to `COc1ccc2c(c1)CCN(Cc1cscn1)CC2`, the cytotoxicity at 70.5 h was -0.57%.
To `CCC(Cn1ccnc1)n1cnc2scc(C)c2c1=O` (stereo unspecified) belongs 13.9%.
To `Cc1cc(N2CCC3(CC2)C(C(=O)O)CC(=O)N3C)nc2ccccc12` (stereo unspecified) belongs -6.81%.
To `Cn1c(CN2CCOCC2)nnc1C1CCCN(CC(N)=O)C1` (stereo unspecified) belongs 3.41%; to `COCC(O)CNC(=O)c1coc(COc2ccc3sc(C)nc3c2)n1` (stereo unspecified), -9.49%; to `CCN(CC)S(=O)(=O)N1CCCC(c2cccc(C(=O)O)c2)C1` (stereo unspecified), -6.99%.
As to `CCOc1ccc(-c2ccnc(CC)n2)cc1C(=O)O`, the cytotoxicity at 70.5 h is -7.1%.
To `O=C(Cc1ccccn1)N1C[C@@H]2CC[C@H](C1)N(Cc1ccccc1)C2=O` belongs 6.93%; to `CCNC(=O)c1ccnc(NCC2COc3cc(OC)ccc3C2)c1` (stereo unspecified), -3.26%.
As for `CC(C)CN1CCC(c2nc3c([nH]2)CC(C)(C)CNC3=O)C1` (stereo unspecified), the cytotoxicity at 70.5 h is -9.67%.
Regarding `COc1ccc(C(=O)N2C[C@@H](CN3CCOCC3)[C@@H](CO)C2)c(C)c1`, the cytotoxicity at 70.5 h is -7.76%.
To `Cc1ccc(CN2CCC(c3nnc(CN4CCCCC4)n3C)CC2)o1` belongs -5.72%; to `COc1ccccc1OCc1cc(C(=O)N2C[C@H](O)[C@@H](N(C)C)C2)n[nH]1`, -4.57%.
To `O=C(NC(CO)CO)c1coc(COc2cccc(F)c2)n1` belongs -13%.
To `COCCN1CCN(Cc2ccc(F)c(C)c2)[C@H]2CS(=O)(=O)C[C@H]21` belongs 17.8%; to `O=C(Cc1cccc(Cl)c1)N[C@@H]1CCNC[C@H]1O`, -3.16%; to `Cc1ccccc1CSc1nc(N)cc(N2CCOC(C(N)=O)C2)n1` (stereo unspecified), 1.56%.
On to `COCCCn1ccnc1-c1cnc(OC)nc1`, for which the cytotoxicity at 70.5 h is -9.97%.
To `COc1ccc(C(=O)C2CCCN(CCCn3cccn3)C2)c(OC)c1` (stereo unspecified) belongs 20.9%.
To `CCN1CC(C(=O)N2CCC(Oc3ccccc3C)CC2)CC1=O` (stereo unspecified) belongs -7.02%.
To `CCNC(=O)[C@@H]1C[C@H](NC(=O)c2ccccc2C#N)CN1CCCSC` belongs -2.96%.
Turning to `COCCC1(CO)CCCN(Cc2ccc(F)c(C)c2)C1` (stereo unspecified), the cytotoxicity at 70.5 h was -6.14%.
To `CCn1c(Cn2cncn2)nnc1C1CCN(C(=O)CCSC)CC1` belongs -4.61%.
As for `Cc1cc(C)c2nc(CN3CC[C@@H](O)C3)cc(O)c2c1`, the cytotoxicity at 70.5 h was -4.35%.
To `N#Cc1ccccc1CN1C[C@@H]2CC[C@H](C1)N(Cc1cscn1)C2=O` belongs -11.1%; to `Cc1cccnc1CN1CCC(c2nnc(Cn3cccn3)n2C)CC1`, -7.96%; to `CCn1c(CN(C)C)nnc1C1CCN(c2ccnc(C)c2)CC1`, -3.44%.
To `COc1ccc(C(=O)N2C[C@@H](C(=O)O)[C@H](c3ccccc3C)C2)c(O)c1` belongs -6.81%; to `CSCCC1c2nc[nH]c2CCN1Cc1cc(Cl)ccc1O` (stereo unspecified), -5.87%; to `Cc1cc(N2CCCN(C(=O)Cc3csc(C)n3)CC2)ccn1`, -12.4%.
`COc1ccc2c(c1)OCC(CNC(=O)c1ccc(=O)n(C)c1)C2` (stereo unspecified): the cytotoxicity at 70.5 h was -10%.
To `CC(C)Cc1noc(CN(C)C(=O)C2COc3ccccc3C2)n1` (stereo unspecified) belongs -14.4%; to `COc1cccc2c1OCC(CNC(=O)CSc1nc(N)n[nH]1)C2` (stereo unspecified), -12%.
To `CCn1nc(CNC(=O)C2CC(=O)N(C3CCCC3)C2)c2ccccc21` (stereo unspecified) belongs 13.8%.
Regarding `OCC1CCCCN1c1ccc(-c2nc(-c3ccccc3F)no2)cn1` (stereo unspecified), the cytotoxicity at 70.5 h is -24.7%.
To `Cc1cncc(C(=O)N2CCC(Cn3cc(-c4ccsc4)nn3)CC2)c1` belongs -16.9%; to `COCCN(C)C(=O)Cn1cccc(OC)c1=O`, -9.38%; to `Cn1cc(CN2CC[C@@H]3[C@@H](CCC(=O)N3CCC3=CCCCC3)C2)cn1`, -4.77%.
To `COCc1cn([C@@H]2c3ccccc3C3(CCNCC3)[C@H]2O)nn1` belongs -6.38%.
Consider `O=C(O)[C@@H]1CN(C(=O)c2ccc3[nH]nnc3c2)C[C@H]1c1cccc(F)c1`, for which the cytotoxicity at 70.5 h was -8.9%.
To `CCn1nc(CC(C)C)cc1C(=O)NCCn1cccc1` belongs -2.38%.
For the compound `CC(C)Oc1cc(N2C[C@@H](C)O[C@@H](C)C2)nc(N)n1`, the cytotoxicity at 70.5 h is -14.6%.
`CN(Cc1nccs1)c1nc(-c2ccccn2)nc2c1CCNCC2`: the cytotoxicity at 70.5 h was -4.75%.
With `CCn1cc(CN2CCCn3nc(CNC(=O)C4CCC4)cc3C2)cn1`, the cytotoxicity at 70.5 h was -9%.
As for `CCn1ccnc1CN1CCC(CCC(=O)Nc2ccccc2Cl)CC1`, the cytotoxicity at 70.5 h was found to be 11.7%.
With `CCn1cc(CN2CCCn3nc(CCC(=O)NCCO)cc3C2)cn1`, the cytotoxicity at 70.5 h is -3.88%.
To `CCS(=O)(=O)N1CCC(c2nnc(Cn3cccn3)n2C2CC2)CC1` belongs -0.619%.
